Reference: PubChem BioAssay (NCI)
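Compound exposure: 48 hours, 5 concentrations, 96-well plates. Definition used: TGI = concentration required for complete inhibition of growth.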

Tests used:
Assay in all cases: NCI tumour cell line growth inhibition, 48 h
786-0 renal = system: 786-0 renal
A498 renal = system: A498 renal
A549 NSCLC = system: A549 NSCLC
ACHN renal = system: ACHN renal
BT-549 breast = system: BT-549 breast
CAKI-1 renal = system: CAKI-1 renal
COLO 205 colon = system: COLO 205 colon
DU-145 prostate = system: DU-145 prostate
EKVX NSCLC = system: EKVX NSCLC
HCT-116 colon = system: HCT-116 colon
HCT-15 colon = system: HCT-15 colon
HL-60(TB) leukemia = system: HL-60(TB) leukemia
HOP-62 NSCLC = system: HOP-62 NSCLC
HOP-92 NSCLC = system: HOP-92 NSCLC
HS 578T breast = system: HS 578T breast
HT29 colon = system: HT29 colon
IGROV1 ovarian = system: IGROV1 ovarian
K-562 leukemia = system: K-562 leukemia
KM12 colon = system: KM12 colon
LOX IMVI melanoma = system: LOX IMVI melanoma
M14 melanoma = system: M14 melanoma
MALME-3M melanoma = system: MALME-3M melanoma
MCF7 breast = system: MCF7 breast
MDA-MB-231 breast = system: MDA-MB-231 breast
MDA-MB-435 = system: MDA-MB-435
MOLT-4 leukemia = system: MOLT-4 leukemia
NCI-H226 lung = system: NCI-H226 lung
NCI-H23 lung = system: NCI-H23 lung
NCI-H460 lung = system: NCI-H460 lung
NCI-H522 lung = system: NCI-H522 lung
NCI/ADR-RES ovarian = system: NCI/ADR-RES ovarian
OVCAR-3 ovarian = system: OVCAR-3 ovarian
OVCAR-4 ovarian = system: OVCAR-4 ovarian
OVCAR-5 ovarian = system: OVCAR-5 ovarian
OVCAR-8 ovarian = system: OVCAR-8 ovarian
PC-3 prostate = system: PC-3 prostate
RPMI-8226 leukemia = system: RPMI-8226 leukemia
RXF 393 renal = system: RXF 393 renal
SF-268 CNS = system: SF-268 CNS
SF-295 CNS = system: SF-295 CNS
SF-539 CNS = system: SF-539 CNS
SK-MEL-2 melanoma = system: SK-MEL-2 melanoma
SK-MEL-28 melanoma = system: SK-MEL-28 melanoma
SK-MEL-5 melanoma = system: SK-MEL-5 melanoma
SK-OV-3 ovarian = system: SK-OV-3 ovarian
SN12C renal = system: SN12C renal
SNB-19 CNS = system: SNB-19 CNS
SNB-75 CNS = system: SNB-75 CNS
SR leukemia = system: SR leukemia
SW-620 colon = system: SW-620 colon
T-47D breast = system: T-47D breast
TK-10 renal = system: TK-10 renal
U251 CNS = system: U251 CNS
UACC-257 melanoma = system: UACC-257 melanoma
UACC-62 melanoma = system: UACC-62 melanoma
CCRF-CEM leukemia = system: CCRF-CEM leukemia
HCC-2998 colon = system: HCC-2998 colon
UO-31 renal = system: UO-31 renal

For `OC1CCN(c2c3ccccc3nc3ccccc23)CC1`, the TGI (786-0 renal) was > 100 µM, the TGI (A498 renal) was 35.6 µM and the TGI (A549 NSCLC) was > 100 µM. It also gave a TGI (ACHN renal) of 26.4 µM, a TGI (BT-549 breast) of 41.1 µM and a TGI (CAKI-1 renal) of 50.5 µM. The TGI (COLO 205 colon) was 9.45 µM, the TGI (DU-145 prostate) was > 100 µM and the TGI (EKVX NSCLC) was > 100 µM. The TGI (HCT-116 colon) was > 100 µM, the TGI (HCT-15 colon) was 39.7 µM and the TGI (HL-60(TB) leukemia) was > 100 µM. The TGI (HOP-62 NSCLC) was > 100 µM, the TGI (HOP-92 NSCLC) was > 100 µM and the TGI (HS 578T breast) was > 100 µM. For the same molecule, the TGI (HT29 colon) was 5.44 µM, the TGI (IGROV1 ovarian) was 40.6 µM and the TGI (K-562 leukemia) was > 100 µM. For the same molecule, the TGI (KM12 colon) was > 100 µM, the TGI (LOX IMVI melanoma) was > 100 µM and the TGI (M14 melanoma) was > 100 µM. The TGI (MALME-3M melanoma) was 36.9 µM, the TGI (MCF7 breast) was 10.3 µM and the TGI (MDA-MB-231 breast) was 84.9 µM. For the same molecule, the TGI (MDA-MB-435) was 54.9 µM, the TGI (MOLT-4 leukemia) was > 100 µM and the TGI (NCI-H226 lung) was > 100 µM. For the same molecule, the TGI (NCI-H23 lung) was > 100 µM, the TGI (NCI-H460 lung) was 50.9 µM and the TGI (NCI-H522 lung) was 7.42 µM. For the same molecule, the TGI (NCI/ADR-RES ovarian) was > 100 µM, the TGI (OVCAR-3 ovarian) was > 100 µM and the TGI (OVCAR-4 ovarian) was 36.6 µM. For the same molecule, the TGI (OVCAR-5 ovarian) was > 100 µM, the TGI (OVCAR-8 ovarian) was 79 µM and the TGI (PC-3 prostate) was > 100 µM. The TGI (RPMI-8226 leukemia) was > 100 µM, the TGI (RXF 393 renal) was 17.5 µM and the TGI (SF-268 CNS) was 34 µM. The TGI (SF-295 CNS) was 72.9 µM, the TGI (SF-539 CNS) was > 100 µM and the TGI (SK-MEL-2 melanoma) was 27.6 µM. The TGI (SK-MEL-28 melanoma) was 5.52 µM, the TGI (SK-MEL-5 melanoma) was 35.6 µM and the TGI (SK-OV-3 ovarian) was 82.7 µM. For the same molecule, the TGI (SN12C renal) was > 100 µM, the TGI (SNB-19 CNS) was 75 µM and the TGI (SNB-75 CNS) was 44.7 µM. The TGI (SR leukemia) was > 100 µM, the TGI (SW-620 colon) was > 100 µM and the TGI (T-47D breast) was 4.78 µM. For the same molecule, the TGI (TK-10 renal) was 22.1 µM, the TGI (U251 CNS) was 51.1 µM and the TGI (UACC-257 melanoma) was 40.8 µM. For the same molecule, the TGI (UACC-62 melanoma) was 99.3 µM.

Molecule `Cc1ccc(Nc2nc3nc[nH]c3c(=O)[nH]2)cc1CO` has a TGI (786-0 renal) of 29.1 µM, a TGI (A549 NSCLC) of 10.2 µM and a TGI (ACHN renal) of 29.4 µM. For the same molecule, the TGI (BT-549 breast) was 28.4 µM, the TGI (CAKI-1 renal) was 29.3 µM and the TGI (CCRF-CEM leukemia) was 36.2 µM. The TGI (COLO 205 colon) was 27.8 µM, the TGI (DU-145 prostate) was 33.6 µM and the TGI (EKVX NSCLC) was 28 µM. It also gave a TGI (HCC-2998 colon) of 28.9 µM, a TGI (HCT-116 colon) of 25.4 µM and a TGI (HCT-15 colon) of 29.9 µM. The TGI (HL-60(TB) leukemia) was 21.6 µM, the TGI (HOP-92 NSCLC) was 21 µM and the TGI (HS 578T breast) was 43.9 µM. It also gave a TGI (HT29 colon) of 22 µM, a TGI (IGROV1 ovarian) of 28.3 µM and a TGI (K-562 leukemia) of 40 µM. The TGI (KM12 colon) was 22.7 µM, the TGI (LOX IMVI melanoma) was 36.5 µM and the TGI (M14 melanoma) was 25.5 µM. It also gave a TGI (MALME-3M melanoma) of 30.4 µM, a TGI (MCF7 breast) of 30.4 µM and a TGI (MDA-MB-231 breast) of 24.7 µM. It also gave a TGI (MDA-MB-435) of 29.6 µM, a TGI (MOLT-4 leukemia) of 34.3 µM and a TGI (NCI-H226 lung) of 31.8 µM. It also gave a TGI (NCI-H23 lung) of 33.9 µM, a TGI (NCI-H460 lung) of 30.7 µM and a TGI (NCI-H522 lung) of 24.3 µM. It also gave a TGI (NCI/ADR-RES ovarian) of 29.8 µM, a TGI (OVCAR-3 ovarian) of 29.2 µM and a TGI (OVCAR-4 ovarian) of 31.4 µM. For the same molecule, the TGI (OVCAR-5 ovarian) was 33.6 µM, the TGI (OVCAR-8 ovarian) was 30.4 µM and the TGI (PC-3 prostate) was 25.4 µM. It also gave a TGI (RPMI-8226 leukemia) of 33.7 µM, a TGI (RXF 393 renal) of 30 µM and a TGI (SF-268 CNS) of 35.8 µM. It also gave a TGI (SF-295 CNS) of 29.6 µM, a TGI (SK-MEL-2 melanoma) of 31.2 µM and a TGI (SK-MEL-28 melanoma) of 32.1 µM. For the same molecule, the TGI (SK-MEL-5 melanoma) was 31.2 µM, the TGI (SK-OV-3 ovarian) was 27.7 µM and the TGI (SNB-19 CNS) was 24.6 µM. It also gave a TGI (SNB-75 CNS) of 29.2 µM, a TGI (SR leukemia) of 37.7 µM and a TGI (SW-620 colon) of 32 µM. The TGI (T-47D breast) was 27.2 µM, the TGI (TK-10 renal) was 31.9 µM and the TGI (UACC-257 melanoma) was 31.2 µM. For the same molecule, the TGI (UACC-62 melanoma) was 25.9 µM and the TGI (UO-31 renal) was 29.5 µM.
